Some test systems named below: A498 renal; CCRF-CEM leukemia; HL-60(TB) leukemia; K-562 leukemia; OVCAR-3 ovarian; OVCAR-5 ovarian; RXF 393 renal; SK-MEL-28 melanoma; SW-620 colon; TK-10 renal.
Holding throughout (assay): NCI-60 cell line screen, 48 h

Values joined by “and” are separate entries in the source; they are usually repeats but may differ in a detail not shown here. Equal values may be shown once.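 Method: 48-hour compound exposure of cells in 96-well plates, five concentrations, linear interpolation of endpoints. GI50: concentration for 50% inhibition of growth. TGI is the concentration that stops growth completely.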

In the case of `Cc1nc2sc(C(=O)Nc3cccc(Cl)c3)c(N)c2cc1C(O)c1ccccc1` (centres undefined), the GI50 in the assay with A498 renal is 0.181 µM; in the assay with CCRF-CEM leukemia it was 0.483 µM; in the assay with HL-60(TB) leukemia, 0.401 µM; with K-562 leukemia, 0.488 µM; in the assay with OVCAR-3 ovarian it was 0.587 µM; in the assay on OVCAR-5 ovarian, 2.41 µM. The GI50 in the assay with RXF 393 renal is 0.722 µM; in the assay with SK-MEL-28 melanoma it was 3.12 µM; with SW-620 colon, 0.351 µM; in the assay with TK-10 renal, 3.77 µM. Further, the TGI in the assay on A498 renal was 0.815 µM; in the assay on CCRF-CEM leukemia, over 100 µM; with HL-60(TB) leukemia, 6.67 µM; with K-562 leukemia, over 100 µM; in the assay with OVCAR-3 ovarian it was 21.6 µM; in the assay with OVCAR-5 ovarian, 18.1 µM. Besides, the TGI in the assay with RXF 393 renal was found to be 11.5 µM; in the assay on SK-MEL-28 melanoma it was 22.3 µM; in the assay with SW-620 colon it was 19.7 µM; in the assay on TK-10 renal it was 33.6 µM.

For the compound `Fc1cccc(C2ON=C(c3ccccc3)N2C23CC4CC(CC(C4)C2)C3)c1` (centres undefined), the TGI with A498 renal, in the assay on HL-60(TB) leukemia, with K-562 leukemia, with OVCAR-3 ovarian, in the assay on OVCAR-5 ovarian and in the assay on RXF 393 renal was over 10 µM throughout. Further, the TGI with SK-MEL-28 melanoma, with SW-620 colon and in the assay on TK-10 renal was over 10 µM throughout.

In the case of `COc1cc([C@H]2c3cc4c(cc3[C@H](NCc3ccc(F)cc3)C3COC(=O)[C@H]32)OCO4)cc(OC)c1O` (some centres undefined), the TGI in the assay on A498 renal was 8.02 µM; in the assay on CCRF-CEM leukemia, over 100 µM; with HL-60(TB) leukemia, 4.7 µM; in the assay with K-562 leukemia, 41 µM; with OVCAR-3 ovarian, 29.3 µM; in the assay with OVCAR-5 ovarian, 30.9 µM. Also, the TGI with RXF 393 renal is 42.8 µM; with SK-MEL-28 melanoma, 37 µM; in the assay with SW-620 colon, 21.4 µM; with TK-10 renal, 41.4 µM.

Regarding `Nc1nc2c(ncn2C2OC(CO)C(O)C2O)c(=O)[nH]1` (centres undefined), the TGI in the assay with A498 renal is 8.79 µM; with CCRF-CEM leukemia it was > 100 µM and 217 µM; with HL-60(TB) leukemia, > 100 µM and 99.7 µM; in the assay with K-562 leukemia, > 100 µM and 233 µM; in the assay on OVCAR-3 ovarian, 235 µM; in the assay with OVCAR-5 ovarian it was > 100 µM and 291 µM. Further, the TGI in the assay on RXF 393 renal is 162 µM; with SK-MEL-28 melanoma it was > 100 µM and 265 µM; in the assay with SW-620 colon, > 100 µM and 241 µM. Also, the GI50 in the assay on CCRF-CEM leukemia is 13.5 µM; in the assay on HL-60(TB) leukemia it was over 100 µM; in the assay with K-562 leukemia, over 100 µM; in the assay with SW-620 colon it was over 100 µM.

As for `COc1cc(/C=C/C(=O)/C=C/c2ccc(-n3ccnc3)cc2)ccc1O`, the GI50 in the assay with A498 renal was 7.22 µM; with CCRF-CEM leukemia it was 2.68 µM; in the assay with HL-60(TB) leukemia, 3.29 µM; in the assay on K-562 leukemia it was 3.18 µM; in the assay with OVCAR-3 ovarian, 3.14 µM; in the assay on OVCAR-5 ovarian, 16.6 µM. Moreover, the GI50 with RXF 393 renal was 1.81 µM; in the assay on SK-MEL-28 melanoma, 2.42 µM; with SW-620 colon, 2.34 µM; in the assay with TK-10 renal it was 4.42 µM. Moreover, the TGI in the assay on A498 renal was 19.9 µM; with CCRF-CEM leukemia, 12.7 µM; in the assay with HL-60(TB) leukemia, 22.4 µM; in the assay with K-562 leukemia it was over 100 µM; with OVCAR-3 ovarian, 10 µM; in the assay with OVCAR-5 ovarian, 33.9 µM. Moreover, the TGI with RXF 393 renal came out at 3.42 µM; in the assay on SK-MEL-28 melanoma, 6.49 µM; in the assay on SW-620 colon, 5.78 µM; with TK-10 renal, 36.3 µM.

`O=C([CH-]C(=O)c1ccccc1)c1ccccc1.[CH2-]C.[CH2-]C.[Tl+3]`: the GI50 with A498 renal is 48.9 µM; with HL-60(TB) leukemia, 2.99 µM; in the assay with K-562 leukemia it was 9.92 µM; in the assay on OVCAR-3 ovarian it was 28 µM; in the assay with OVCAR-5 ovarian, 40.5 µM; in the assay on RXF 393 renal it was 16.5 µM. For the same compound, the GI50 in the assay on SK-MEL-28 melanoma is 33.5 µM; in the assay with SW-620 colon it was 26.5 µM; with TK-10 renal, 55 µM. Also, the TGI in the assay with A498 renal is over 100 µM; in the assay with HL-60(TB) leukemia, 21.6 µM; in the assay with K-562 leukemia it was 59.6 µM; in the assay with OVCAR-3 ovarian, over 100 µM; in the assay with OVCAR-5 ovarian, over 100 µM; in the assay with RXF 393 renal, 88.7 µM. The TGI in the assay on SK-MEL-28 melanoma, in the assay with SW-620 colon and in the assay on TK-10 renal was over 100 µM throughout.

`C=C(c1ccc(C(=O)NCCCn2ccnc2)cc1)c1cc2c(cc1C)C(C)(C)CCC2(C)C`: the GI50 in the assay with A498 renal is 25.2 µM; in the assay on HL-60(TB) leukemia, 1.06 µM; in the assay with K-562 leukemia, 0.651 µM; with OVCAR-3 ovarian, 1.69 µM; in the assay on OVCAR-5 ovarian, 0.953 µM; in the assay on RXF 393 renal, 1.71 µM. Moreover, the GI50 in the assay with SK-MEL-28 melanoma is 1.71 µM; with TK-10 renal, 2.97 µM. The TGI in the assay on A498 renal is over 100 µM; in the assay on HL-60(TB) leukemia, 3.93 µM; in the assay with K-562 leukemia it was over 100 µM; in the assay with OVCAR-3 ovarian it was 6.09 µM; in the assay on OVCAR-5 ovarian it was 12.7 µM; in the assay on RXF 393 renal, 4.71 µM. Further, the TGI with SK-MEL-28 melanoma stood at 6.38 µM; with TK-10 renal, 7.87 µM.

Regarding `COc1ccc2cc1Oc1ccc(cc1)CC1c3c(cc(OC)c4c3Oc3cc5c(cc3O4)CCNC5C2)CCN1C` (centres undefined), the GI50 was 1.64 µM in the assay with A498 renal; 1.62 µM in the assay on OVCAR-3 ovarian; 1.98 µM in the assay on OVCAR-5 ovarian; 0.288 µM with RXF 393 renal; 1.84 µM with SK-MEL-28 melanoma; 1.74 µM in the assay on TK-10 renal. Further, the TGI in the assay on A498 renal was 3.7 µM and 3.02 µM; in the assay with CCRF-CEM leukemia it was 3.61 µM; with HL-60(TB) leukemia, 3.67 µM; with OVCAR-3 ovarian it was 7.41 µM and 3.07 µM; with OVCAR-5 ovarian, 15.1 µM and 3.46 µM; in the assay with RXF 393 renal, 0.883 µM. Moreover, the TGI in the assay on SK-MEL-28 melanoma is 3.5 µM and 3.54 µM; in the assay with TK-10 renal it was 3.68 µM and 3.12 µM.

Consider `COc1ccc(S(=O)(=O)NNS(C)(=O)=O)cc1OC`, for which the TGI in the assay with A498 renal, in the assay with CCRF-CEM leukemia, in the assay on HL-60(TB) leukemia, in the assay on K-562 leukemia, in the assay with RXF 393 renal and in the assay with SW-620 colon was over 100 µM each time. This compound also returned a TGI in the assay with TK-10 renal of over 100 µM.

For `CCCCCCC1CCCCN1C(c1ccccc1)C(O)c1ccccc1` (centres undefined), the GI50 in the assay with A498 renal was 11.1 µM; in the assay on HL-60(TB) leukemia, 3.01 µM; in the assay on K-562 leukemia, 4.23 µM; with OVCAR-3 ovarian it was 8.49 µM; with OVCAR-5 ovarian it was 10.1 µM; with RXF 393 renal, 2.18 µM. Also, the GI50 is 9.99 µM in the assay on SK-MEL-28 melanoma, 5.35 µM in the assay with SW-620 colon and 14.2 µM with TK-10 renal. The TGI in the assay on A498 renal worked out at 23.5 µM; in the assay on HL-60(TB) leukemia, 7.01 µM; in the assay with K-562 leukemia, 21.7 µM; with OVCAR-3 ovarian, 20.8 µM; in the assay with OVCAR-5 ovarian, 22 µM; in the assay with RXF 393 renal it was 6.77 µM. The TGI in the assay on SK-MEL-28 melanoma was 22.1 µM; in the assay with SW-620 colon, 18.4 µM; with TK-10 renal it was 27.6 µM.

As to `COc1cc2ccc(CC(=O)O)cc2cc1OC`, the TGI in the assay with A498 renal, in the assay on CCRF-CEM leukemia, with HL-60(TB) leukemia, in the assay on K-562 leukemia, in the assay on OVCAR-3 ovarian and in the assay with RXF 393 renal was over 100 µM throughout. The TGI with SK-MEL-28 melanoma, with SW-620 colon and with TK-10 renal was over 100 µM in each case.

In the case of `Cc1ccccc1NC(=O)C(=O)CC(=O)c1sc(-n2nc(-c3ccccc3)cc2-c2ccccc2)nc1C`, the TGI in the assay with A498 renal, in the assay on CCRF-CEM leukemia, in the assay with HL-60(TB) leukemia, in the assay on K-562 leukemia, in the assay on OVCAR-3 ovarian and in the assay with OVCAR-5 ovarian was over 100 µM throughout. Further, the TGI in the assay with RXF 393 renal, in the assay on SW-620 colon and with TK-10 renal was over 100 µM each time.

With `N#CC(C#N)=C/C=C/c1ccccc1[N+](=O)[O-]`, the TGI was over 10 µM with A498 renal; over 10 µM in the assay on CCRF-CEM leukemia; over 10 µM in the assay with HL-60(TB) leukemia; over 10 µM in the assay with K-562 leukemia; over 10 µM with OVCAR-3 ovarian; 9.53 µM in the assay with RXF 393 renal. The TGI in the assay with SK-MEL-28 melanoma was 5.47 µM; in the assay on SW-620 colon, over 10 µM; with TK-10 renal, over 10 µM.

For the compound `CNc1ccc(CSc2ccc(C)cc2)cc1`, the GI50 with A498 renal was 0.178 µM; with CCRF-CEM leukemia, 0.676 µM; in the assay on HL-60(TB) leukemia, 1.32 µM; in the assay on OVCAR-3 ovarian it was 11.7 µM; in the assay with OVCAR-5 ovarian, 71.3 µM; in the assay with RXF 393 renal it was 11.4 µM. Moreover, the GI50 was 20.3 µM in the assay with SK-MEL-28 melanoma, 18.6 µM in the assay with SW-620 colon and 40.3 µM in the assay on TK-10 renal. The TGI was over 100 µM with A498 renal; 12.2 µM with CCRF-CEM leukemia; 4.28 µM in the assay on HL-60(TB) leukemia; over 100 µM with OVCAR-3 ovarian; over 100 µM in the assay on OVCAR-5 ovarian; 87.2 µM in the assay with RXF 393 renal. The TGI with SK-MEL-28 melanoma, with SW-620 colon and in the assay on TK-10 renal was over 100 µM each time.

On to `CC(=O)OCCc1cc2ccccc2oc1=O`, for which the TGI with A498 renal, in the assay on CCRF-CEM leukemia, in the assay with HL-60(TB) leukemia, with K-562 leukemia, in the assay on OVCAR-3 ovarian and in the assay with OVCAR-5 ovarian was over 100 µM each time. The TGI in the assay on RXF 393 renal, in the assay on SK-MEL-28 melanoma and with SW-620 colon was over 100 µM in each case.

These data come from PubChem BioAssay (NCI).
